Measurements: patent US20250325625A1, “ANTIMICROBIAL ASSOCIATION IN THE TREATMENT OF P. AERUGINOSA BIOFILM-ASSOCIATED INFECTIONS” (Zambon S.P.A., priority 2022, published 2025)
Values after ≈ are worked out from the molar mass of the structure shown. Read-outs that look alike come from different tables or passages of the source.

Assays:
[1] = test system: P. aeruginosa preformed biofilms; assay: Biofilm susceptibility testing, Nunc-TSP lid system (Calgary biofilm device), preformed biofilms; format: cell-based; details: P. aeruginosa Z154, NAC 8000 mg/L
Description: In the present invention the Calgary biofilm device (also referred to as Nunc-TSP lid system in the experimental part) was the method selected to test the in vitro antibiofilm activity of colistin and NAC, alone or in combination. NAC stock solutions (100 g/L) were prepared immediately before use. NAC powder (Zambon, Bresso, Italy) was dissolved in sterile distilled water, pH was adjusted at 6.5-6.8 with NaOH 10 M and the solution was filtered through a 0.22-μm membrane filter. All experiments were performed in cation-adjusted Mueller-Hinton broth (CAMHB) (Becton Dickinson, Milan, Italy), unless otherwise specified, starting from an appropriately concentrated medium to avoid broth dilution when NAC solution were used.
Colistin Colistin stock solutions (10 mg/L) were prepared immediately before use, by dissolving colistin powder (colistin sulfate, AppliChem, Darmstadt, Germany) in sterile distilled water.
Assay. Biofilm susceptibility testing was first performed using the Nunc-TSP lid system (Thermo Fisher Scientific, Waltham, MA, USA), as described previously (Harrison J J et al., Nat Protoc, 2010; 5: 1236-54). Briefly, biofilms were grown for 24 hours in CAMHB at 35° C. under static conditions. […] Median cfu per peg (cfu/peg) was then determined by plating 10 μL of appropriate dilutions of the recovery medium onto tryptic soy agar (TSA) (Oxoid) and incubating for 24 hours at 35° C. […]

P. aeruginosa strains [2] = assay: Antimicrobial susceptibility (MIC), reference broth microdilution method; format: cell-based
Description: Fifteen clinical isolates were from CF, a MDR clinical isolate from Respiratory Tract Infection (RTI) from an Intensive Care Unit (ICU), and the reference strain P. aeruginosa PAO1 (Table 1). Identification was performed by MALDI-TOF MS (Bruker, Shimadzu). Antimicrobial susceptibility was determined using the reference broth microdilution method (CLSIMethods2018). Whole genome sequencing of clinical isolates was performed with the Illumina (San Diego, CA, USA) MiSeq platform, using a 2×150 bp paired-end approach. Raw reads were assembled using SPAdes (Bankevich et al. 2012 J Comput Biol 19(5):455-77.), and draft genomes were used to determine MLST- and O-types at the Oxford PubMLST site (https://pubmlst.org/) (Jolley et al. 2018 Wellcome Open Res 3:124) and at the Center for Genomic Epidemiology site (https://cge.cbs.dtu.dk/services/PAst-1.0/) (ThraneJCM2016), respectively. The complete genome of P. aeruginosa Z154 was obtained by combining results from Illumina with those obtained using the Oxford Nanopore Technologies (Oxford, UK) MinION platform, and de novo assembly was generated using Unicycler v0.4.4.

[3] = test system: P. aeruginosa Z154 and Z34 preformed biofilms in ASM; assay: Artificial Sputum Medium (ASM) biofilm model; format: cell-based
Description: Methods. The potential antibiofilm synergism of NAC/colistin combinations was further investigated using an in vitro ASM biofilm model (Kirchner et al. 2012 Immunology 64:e3857), in order to mimic P. aeruginosa biofilm conditions within the CF mucus. […] In brief, biofilms were grown in ASM in 24-well tissue culture treated plates, for 72 hours at 35° C. under static conditions. Preformed biofilms were then exposed to NAC 8000 mg/L and colistin 64 mg/L, alone and in combination. […] After 24 hours of exposure (i.e., 35° C., static conditions), bacterial biofilms were disrupted by 30 minutes of sonication followed by manual pipetting, and the median cfu per mL (cfu/mL) was determined following the same protocol described for the Nunc-TSP lid assay. Data from this biofilm model were obtained in at least three independent experiments, with at least twelve replicates per condition per experiment.

[4] = test system: collection of respiratory pathogens; details: high NAC concentrations; Landini et al. 2016; cited from earlier work
P. aeruginosa strains [5] = assay: Antimicrobial susceptibility (MIC), reference broth microdilution method; format: cell-based; details: isolate FC237, in the presence of NAC
[6] = test system: P. aeruginosa Z154 planktonic culture; assay: Time-kill assays against planktonic cultures under aerobic and anaerobic conditions; format: cell-based; details: colistin concentration higher than 0.25 mg/L, data not shown
Description: Methods. Time-kill assays were performed according to CLSI guidelines (CLSI Methods M26A) with the colistin-susceptible strain Z154. Colistin 0.25 mg/L was tested alone and in combination with NAC 8000 mg/L under both aerobic and anaerobic conditions. […] The medium (CAMHB) used to obtain anoxic cultures was placed under anaerobic atmosphere by using AnaeroGen kit (Oxoid) for 3 days prior to use and during the whole experiment. The killing curves were carried out in borosilicate glass bottles with a final volume of 20 mL of CAMHB. At 0, 2, 4, 8 and 24 hours of exposure ten-fold dilutions were plated on TSA, and the number of cfu/mL was determined (detection limit, 17 cfu/mL). Data were obtained from at least four independent experiments, with two replicates per condition per experiment.

CC(=O)N[C@@H](CS)C(=O)O [NAC, N-acetylcysteine]
antibiofilm activity of NAC alone [1]: observed
MIC (P. aeruginosa strains [2]; Pseudomonas aeruginosa, PAO1, strain PAO1, non-mucoid, wound, read-out: MIC): > 64 mg/mL
MIC (P. aeruginosa strains [2]; Pseudomonas aeruginosa, strain FC237, non-mucoid, CF, colistin-resistant, read-out: MIC): > 32 mg/mL
MIC (P. aeruginosa strains [2]; Pseudomonas aeruginosa, strain FC238, non-mucoid, CF, colistin-resistant, read-out: MIC): > 32 mg/mL
MIC (P. aeruginosa strains [2]; Pseudomonas aeruginosa, strain FZ99, non-mucoid, RTI ICU, colistin-resistant, read-out: MIC): 64 mg/mL (≈ 392 mM)
MIC (P. aeruginosa strains [2]; Pseudomonas aeruginosa, strain M1, mucoid, CF, read-out: MIC): 16 mg/mL (≈ 98 mM)
MIC (P. aeruginosa strains [2]; Pseudomonas aeruginosa, strain M4, mucoid, CF, read-out: MIC): 32 mg/mL (≈ 196 mM)
MIC (P. aeruginosa strains [2]; Pseudomonas aeruginosa, strain M7, mucoid, CF, read-out: MIC): 64 mg/mL (≈ 392 mM)
MIC (P. aeruginosa strains [2]; Pseudomonas aeruginosa, strain M13, mucoid, CF, read-out: MIC): 32 mg/mL (≈ 196 mM)
MIC (P. aeruginosa strains [2]; Pseudomonas aeruginosa, strain M19, mucoid, CF, read-out: MIC): 64 mg/mL (≈ 392 mM)
MIC (P. aeruginosa strains [2]; Pseudomonas aeruginosa, strain M25, mucoid, CF, read-out: MIC): 16 mg/mL (≈ 98 mM)
MIC (P. aeruginosa strains [2]; Pseudomonas aeruginosa, strain M32, mucoid, CF, read-out: MIC): 16 mg/mL (≈ 98 mM)
MIC (P. aeruginosa strains [2]; Pseudomonas aeruginosa, strain M42, mucoid, CF, read-out: MIC): > 32 mg/mL
MIC (P. aeruginosa strains [2]; Pseudomonas aeruginosa, strain Z33, non-mucoid, CF, read-out: MIC): 16 mg/mL (≈ 98 mM)
MIC (P. aeruginosa strains [2]; Pseudomonas aeruginosa, strain Z34, non-mucoid, CF, read-out: MIC): > 16 mg/mL
MIC (P. aeruginosa strains [2]; Pseudomonas aeruginosa, strain Z35, non-mucoid, CF, read-out: MIC): 16 mg/mL (≈ 98 mM)
MIC (P. aeruginosa strains [2]; Pseudomonas aeruginosa, strain Z152, mucoid, CF, read-out: MIC): 8 mg/mL (≈ 49 mM)
MIC (P. aeruginosa strains [2]; Pseudomonas aeruginosa, strain Z154, mucoid, CF, read-out: MIC): 16 mg/mL (≈ 98 mM)
antibiofilm activity of NAC alone ([3]; P. aeruginosa Z154, ASM model, NAC 8000 mg/L): not observed
effect on activity of carbapenems [4]: compromised the activity of carbapenems
interference with activity of the most commonly used antibiotics [4]: do not interfere

colistin [CST]
colistin MIC values (P. aeruginosa strains [2]; colistin-susceptible strains): 1 to 2 mg/L
MIC (P. aeruginosa strains [2]; strain FC237, non-mucoid, CF, colistin-resistant): 0.512 mg/mL
MIC (P. aeruginosa strains [2]; strain FC238, non-mucoid, CF, colistin-resistant): 0.008 mg/mL
MIC (P. aeruginosa strains [2]; strain FZ99, non-mucoid, RTI ICU, colistin-resistant): 0.004 mg/mL
MIC (P. aeruginosa strains [2]; strain M1, mucoid, CF): 0.002 mg/mL
MIC (P. aeruginosa strains [2]; strain M4, mucoid, CF): 0.002 mg/mL
MIC (P. aeruginosa strains [2]; strain M7, mucoid, CF): 0.002 mg/mL
MIC (P. aeruginosa strains [2]; strain M13, mucoid, CF): 0.001 mg/mL
MIC (P. aeruginosa strains [2]; strain M19, mucoid, CF): 0.001 mg/mL
MIC (P. aeruginosa strains [2]; strain M25, mucoid, CF): 0.002 mg/mL
MIC (P. aeruginosa strains [2]; strain M32, mucoid, CF): 0.002 mg/mL
MIC (P. aeruginosa strains [2]; strain M42, mucoid, CF): 0.002 mg/mL
MIC (P. aeruginosa strains [2]; strain PAO1, non-mucoid, wound): 0.002 mg/mL
MIC (P. aeruginosa strains [2]; strain Z33, non-mucoid, CF): 0.001 mg/mL
MIC (P. aeruginosa strains [2]; strain Z34, non-mucoid, CF): 0.002 mg/mL
MIC (P. aeruginosa strains [2]; strain Z35, non-mucoid, CF): 0.001 mg/mL
MIC (P. aeruginosa strains [2]; strain Z152, mucoid, CF): 0.002 mg/mL
MIC (P. aeruginosa strains [2]; strain Z154, mucoid, CF): 0.002 mg/mL
concentration of colistin which allowed to observe a synergism ([3]; ASM model, with NAC 8000 mg/L): 32 ×MIC
antibiofilm activity of colistin in absence of NAC ([3]; higher colistin concentrations (>64 mg/L), data not shown): eradication of the biofilm cultures
colistin antibiofilm activity ([3]; lower colistin concentrations, preliminary experiments, data not shown): did not show either colistin antibiofilm activity
colistin MIC reduced in the presence of NAC (fraction of MIC) (P. aeruginosa strains [5]): 1/64
effect on planktonic cultures [6]: eradication of the planktonic cultures
